Assay results: patent publication US20220064238A1, “Methods And Compositions For Modifying Transcription Factor Activity by Targeting The Human Mediator Complex Using Cell Penetrating Memetic Peptides And Methods of Treating Cancer Using The Same” (The Regents of the University of Colorado, a body corporate, priority 2020, published 2022)
Bridge positions count the residues as written; N and C are the ends. Square brackets hold non-standard residues; d marks the D form. Peptide text beside a SMILES is read from it. PEG6 = NCCOCCOCCOCCOCCOCCOCCC(=O)O; R8 = C=CCCCCCC[C@@](C)(N)C(=O)O; S5 = C=CCCC[C@](C)(N)C(=O)O

System: p53 target genes in HCT116 cells
Assay: RNA-Seq / GSEA in HCT116 cells, p53 pathway genes
Format: cell-based, human
Description: To circumvent this issue, we used a well-tested electroporation protocol to enhance cell uptake of the bivalent peptide (see Methods). HCT116 cells were evaluated either in the presence of bivalent peptide or vehicle (water), with or without Nutlin-3a (FIG. 3A, B). Nutlin-3a is a small molecule that activates and stabilizes p53 by inhibiting MDM2, a repressor of p53. […] After 3 h Nutlin-3a treatment (or DMSO control, ±bivalent peptide), nuclear RNA was isolated and biological replicate RNA-Seq libraries were prepared (FIG. 9A; Table 1).
A confounding issue with these experiments was that cellular uptake of the bivalent peptide could not be accurately measured and could potentially vary from experiment-to-experiment. To assess this possibility more thoroughly, we completed an additional round of RNA-Seq experiments in control vs. Nutlin-treated HCT116 cells (FIG. 9B; Table 1). These additional experiments (RNA-Seq experiment 2) were completed with a slightly modified protocol that included treatment in serum-free media as an effort to enhance peptide uptake. Importantly, the data from RNA-Seq experiment 2 (biological triplicate; FIG. 10) were consistent with the first series of biological replicates (RNA-Seq experiment 1; FIG. 3C-E) and in each case, repression of p53-dependent transcription by the bivalent peptide tracked with Nutlin induction levels (FIG. 9CE). Nutlin-induced activation of p53 target genes was inhibited in the presence of the bivalent peptide, providing further evidence that the bivalent peptide blocks p53 response in cells. However, the scope and magnitude of the effect was reduced in this second, independent set of RNA-Seq experiments (e.g. compare FIG. 3C, D & FIG. 10C, D). This broadly consistent but variable magnitude effect can also be seen from RNA-Seq reads at specific p53 target genes (RNA-Seq experiment 1, FIG. 4A, B; RNA-Seq experiment 2, FIG. 4C, D). The overall p53 response to Nutlin-3a was reduced in RNA Seq experiment 2 (GSEA p53 pathway NES=2.76 in RNA-Seq experiment 1 vs. NES=1.59 in RNASeq experiment 2), which therefore reduced the transcriptional impact of the bivalent peptide. However, we cannot rule out variable cellular uptake of the bivalent peptide as a contributing factor.
Electroporation of bivalent peptide into HCT116 cells (RNA-Seq experiment 1): Two 6-well plates (HCT116 cells) were grown to about 80% confluency. Cells were then trypsinized, washed with PBS, and resuspended in 150 μL Neon Buffer R. The cells were then split into two groups: No peptide and 10 μM peptide. The cells were then drawn into a 10 μL Neon pipet tip, electroporated and ejected into 2 mL of McCoy's 5A media without antibiotic. For each experiment, two cell electroporation aliquots were added to media containing either 0.1% DMSO (control) or 10 μM Nutlin-3a (in DMSO, to a final concentration of 0.1%). For wells containing cells electroporated with peptide, an additional 200 nM peptide was added to the well to allow for peptide uptake during the experiment. The 6-well plate was then placed back at 37° C. for 3 hours. After 3 hours, cells were scraped from the plates, transferred to a 15 mL conical vial, pelleted at 1,000×g, and washed in 10 mL phosphate buffered saline (PBS) solution. To isolate the nuclei, cells were resuspended in 10 mL lysis buffer (10 mM Tris-HCl, pH 7.4, 2 mM MgCl2, 3 mM CaCl2), 0.5% NP-40, 10% glycerol) and thoroughly mixed. The nuclei were spun down at 1,000×g for 10 minutes, the lysis buffer was removed, and 1 mL of TRIzol was added. The nuclear RNA was isolated as described in the TRIzol instructions, except an additional phenol/chloroform extraction and chloroform-only extraction were performed to reduce contaminants. RNA was precipitated and washed twice with 75% ethanol to further remove contaminants. The RNA was then converted to cDNA using the High Capacity cDNA kit from Thermo Fisher Scientific. […]

SMILES: CC[C@H](C)[C@H](NC(=O)[C@H](CC(=O)O)NC(=O)[C@H](CC(=O)O)NC(=O)[C@@H]1CCCN1C(=O)[C@H](CO)NC(=O)[C@H](CC(C)C)NC(=O)CCOCCOCCOCCOCCOCCOCCNC(=O)[C@H](CCCNC(=N)N)NC(=O)[C@H](CCCNC(=N)N)NC(=O)[C@]1(C)CCCC=CCCCCCC[C@@](C)(NC(=O)[C@H](Cc2ccccc2)NC(=O)[C@H](CCCNC(=N)N)NC(=O)[C@H](CCC(=O)O)NC(=O)[C@H](CCC(N)=O)NC(=O)[C@H](CO)NC(=O)[C@H](CCCNC(=N)N)NC(C)=O)C(=O)N[C@@H](CC(=O)O)C(=O)N[C@@H](CC(C)C)C(=O)N[C@@H](Cc2c[nH]c3ccccc23)C(=O)N[C@@H](CCCCN)C(=O)N[C@@H](CCCNC(=N)N)C(=O)N[C@@H](CC(C)C)C(=O)N1)C(=O)N[C@@H](CCC(=O)O)C(=O)N[C@@H](CCC(N)=O)C(=O)N[C@@H](Cc1c[nH]c2ccccc12)C(=O)N[C@@H](Cc1ccccc1)C(=O)N[C@H](C(=O)N[C@@H](CCC(=O)O)C(=O)N[C@@H](CC(=O)O)C(N)=O)[C@@H](C)O [bivalent peptide] (Ac-RSQERF[R8]DLWKRL[S5]RR[PEG6]LSPDDIEQWFTED-NH2; staple 7-14; N-terminus assumed)
- GSEA p53 pathway NES, Nutlin response in peptide-treated cells (RNA-Seq experiment 1, +Nutlin): 1.97
- GSEA p53 pathway NES, Nutlin response in peptide-treated cells (RNA-Seq experiment 2, +Nutlin): 0.92
- Nutlin-induced activation of p53 target genes in peptide-treated cells (electroporated 10 μM peptide, Nutlin-3a 10 μM, 3 h, HCT116): diminished
- p53 activation by peptide alone (no Nutlin, vs. untreated controls, HCT116): modest p53 activation
